Assay results: the NIST ThermoML archive (doi:10.1021/je900882r)

Key:
[1] = mn = molality of the nth substance listed, in mol/kg; details: 298.15 K, 101 kPa, Liquid
[2] = refractive index (Na D-line) (dimensionless); mn = molality of the nth substance listed, in mol/kg; details: 298.15 K, 101 kPa, Liquid
[3] = cn = amount concentration of the nth substance listed, in mol/dm3; details: 298.15 K, 101 kPa, Liquid; for molar conductivity: Alternating current cell with electrodes; for viscosity: Capillary tube (Ostwald / Ubbelohde) method

CCCCn1cc[n+](C)c1.[Br-] [1-butyl-3-methylimidazolium bromide] + O
Details | mass density, [1] [kg/m3] | refractive index, [2]
m1 = 0.0909 | 1001.54 | 1.3357
m1 = 0.0915 | 1001.77 | 1.3359
m1 = 0.097 | 1001.97 | 1.336
m1 = 0.1797 | 1005.97 | 1.3382
m1 = 0.1833 | 1006.34 | 1.3388
m1 = 0.185 | 1006.46 | 1.339
m1 = 0.267 | 1010.2 | 1.3407
m1 = 0.2863 | 1011.4 | 1.3416
m1 = 0.2866 | 1011.29 | 1.3414
m1 = 0.3496 | 1014.39 | 1.343
m1 = 0.3564 | 1014.36 | 1.3433
m1 = 0.3651 | 1014.07 | 1.3437

NCC(=O)O [2-aminoacetic acid] + O
Details | mass density [kg/m3] | molar conductivity [S·m2/mol] | viscosity [mPa·s]
[1], m1 = 0.0521 | 998.7 | – | –
[1], m1 = 0.0997 | 1000.21 | – | –
[1], m1 = 0.1577 | 1002.02 | – | –
[1], m1 = 0.1992 | 1003.32 | – | –
[1], m1 = 0.2235 | 1004.07 | – | –
[1], m1 = 0.2902 | 1006.11 | – | –
[1], m1 = 0.3266 | 1007.22 | – | –
[1], m1 = 0.4495 | 1010.93 | – | –
[1], m1 = 0.5179 | 1012.94 | – | –
[3], c1 = 0.0007166 | – | 0.0153 | –
[3], c1 = 0.001486 | – | 0.0148 | –
[3], c1 = 0.002275 | – | 0.0146 | –
[3], c1 = 0.003892 | – | 0.0145 | –
[3], c1 = 0.00566 | – | 0.0142 | –
[3], c1 = 0.007383 | – | 0.0139 | –
[3], c1 = 0.00904 | – | 0.0137 | –
[3], c1 = 0.0116 | – | 0.0135 | –
[3], c1 = 0.01431 | – | 0.0132 | –
[3], c1 = 0.01747 | – | 0.0129 | –
[3], c1 = 0.02104 | – | 0.0126 | –
[3], c1 = 0.02475 | – | 0.0123 | –
[3], c1 = 0.052 | – | – | 0.881
[3], c1 = 0.0997 | – | – | 0.892
[3], c1 = 0.158 | – | – | 0.91
[3], c1 = 0.1999 | – | – | 0.92
[3], c1 = 0.2244 | – | – | 0.929
[3], c1 = 0.292 | – | – | 0.939
[3], c1 = 0.3289 | – | – | 0.945
[3], c1 = 0.4544 | – | – | 0.965
[3], c1 = 0.5246 | – | – | 0.98

[2], Standard Abbe refractometry
Details | refractive index
m1 = 0.0941 | 1.3333
m1 = 0.1492 | 1.3339
m1 = 0.1972 | 1.3345
m1 = 0.2611 | 1.3354
m1 = 0.2975 | 1.3359
m1 = 0.303 | 1.336
m1 = 0.3935 | 1.337
m1 = 0.4408 | 1.3376

C[C@H](N)C(=O)O [(S)-2-aminopropanoic acid] + O
Details | mass density [kg/m3] | molar conductivity [S·m2/mol] | viscosity [mPa·s]
[1], m1 = 0.0499 | 998.55 | – | –
[1], m1 = 0.0849 | 999.6 | – | –
[1], m1 = 0.1397 | 1001.23 | – | –
[1], m1 = 0.1784 | 1002.37 | – | –
[1], m1 = 0.2346 | 1004.02 | – | –
[1], m1 = 0.2731 | 1005.13 | – | –
[1], m1 = 0.3275 | 1006.7 | – | –
[1], m1 = 0.3551 | 1007.46 | – | –
[1], m1 = 0.4168 | 1009.23 | – | –
[1], m1 = 0.4513 | 1010.16 | – | –
[3], c1 = 0.0007166 | – | 0.0153 | –
[3], c1 = 0.001486 | – | 0.0148 | –
[3], c1 = 0.002275 | – | 0.0146 | –
[3], c1 = 0.003892 | – | 0.0145 | –
[3], c1 = 0.00566 | – | 0.0142 | –
[3], c1 = 0.007383 | – | 0.0139 | –
[3], c1 = 0.00904 | – | 0.0137 | –
[3], c1 = 0.0116 | – | 0.0135 | –
[3], c1 = 0.01431 | – | 0.0132 | –
[3], c1 = 0.01747 | – | 0.0129 | –
[3], c1 = 0.02104 | – | 0.0126 | –
[3], c1 = 0.02475 | – | 0.0123 | –
[3], c1 = 0.0532 | – | – | 0.886
[3], c1 = 0.091 | – | – | 0.891
[3], c1 = 0.1498 | – | – | 0.897
[3], c1 = 0.1918 | – | – | 0.902
[3], c1 = 0.2526 | – | – | 0.912
[3], c1 = 0.2941 | – | – | 0.921
[3], c1 = 0.3537 | – | – | 0.928
[3], c1 = 0.3827 | – | – | 0.936
[3], c1 = 0.4512 | – | – | 0.951
[3], c1 = 0.4876 | – | – | 0.957

[2], Standard Abbe refractometry
Details | refractive index
m1 = 0.0533 | 1.3326
m1 = 0.091 | 1.333
m1 = 0.1496 | 1.3337
m1 = 0.1913 | 1.3342
m1 = 0.2516 | 1.335
m1 = 0.2926 | 1.3355
m1 = 0.3514 | 1.3362
m1 = 0.3799 | 1.3365
m1 = 0.4471 | 1.3374
m1 = 0.4827 | 1.3378

CC(C)[C@H](N)C(=O)O [L-valine] + O
Details | mass density [kg/m3] | molar conductivity [S·m2/mol] | viscosity [mPa·s]
[1], m1 = 0.1173 | 1000.17 | – | –
[1], m1 = 0.1402 | 1000.77 | – | –
[1], m1 = 0.1894 | 1002.03 | – | –
[1], m1 = 0.2512 | 1003.59 | – | –
[1], m1 = 0.2973 | 1004.74 | – | –
[1], m1 = 0.3211 | 1005.32 | – | –
[1], m1 = 0.3841 | 1006.84 | – | –
[1], m1 = 0.4378 | 1008.11 | – | –
[3], c1 = 0.0007166 | – | 0.0153 | –
[3], c1 = 0.001486 | – | 0.0148 | –
[3], c1 = 0.002275 | – | 0.0146 | –
[3], c1 = 0.003892 | – | 0.0145 | –
[3], c1 = 0.00566 | – | 0.0142 | –
[3], c1 = 0.007383 | – | 0.0139 | –
[3], c1 = 0.00904 | – | 0.0137 | –
[3], c1 = 0.0116 | – | 0.0135 | –
[3], c1 = 0.01431 | – | 0.0132 | –
[3], c1 = 0.01747 | – | 0.0129 | –
[3], c1 = 0.1173 | – | – | 0.892
[3], c1 = 0.1403 | – | – | 0.899
[3], c1 = 0.1898 | – | – | 0.906
[3], c1 = 0.2521 | – | – | 0.916
[3], c1 = 0.2987 | – | – | 0.938
[3], c1 = 0.3228 | – | – | 0.943
[3], c1 = 0.3867 | – | – | 0.958
[3], c1 = 0.4413 | – | – | 0.979

[2], Standard Abbe refractometry
Details | refractive index
m1 = 0.1173 | 1.3348
m1 = 0.1402 | 1.3353
m1 = 0.1894 | 1.3363
m1 = 0.2512 | 1.3375
m1 = 0.2973 | 1.3384
m1 = 0.3211 | 1.3389
m1 = 0.3841 | 1.3401
m1 = 0.4378 | 1.341
